“Also recorded” adds a separate entry of the source.
Legend:
TTK [1] = test: Semiquantitative RT-PCR of TTK expression after transfection of siRNA-expression plasmids; type: cell-based, human; settings: LC319 and A549 cells, versus control siRNAs (LUC, SCR)
Procedure: Total RNA was extracted from cultured cells and clinical tissues using Trizol reagent (Life Technologies, Inc.) according to the manufacturer's protocol. Extracted RNAs and normal human tissue poly(A) RNAs were treated with DNase I (Nippon Gene) and were reverse-transcribed using oligo(dT)20 primer and SuperScript II reverse transcriptase (Invitrogen). Semiquantitative RT-PCR experiments were carried out with the following synthesized gene-specific primers or with beta-actin (ACTB)-specific primers as an internal control: TTK,
A vector-based RNA interference (RNAi) system, psiH1BX3.0, had previously established to direct the synthesis of siRNAs in mammalian cells (Suzuki et al., 2003, 2005; Kato et al, 2005; Furukawa et al, 2005). 10 micro-g of siRNA-expression vector were transfected into NSCLC cell lines LC319 and A549 both of which over-expressed TTK endogenously, using 30 micro-1 of Lipofectamine 2000 (Invitrogen). The transfected cells were cultured for five days in the presence of appropriate concentrations of geneticin (G418), after which cell numbers and viability were measured by Giemsa staining and triplicate MTT assays. […]

LC319 and A549 cells = test: MTT and colony-formation assays after transfection of siRNA-expression plasmids; type: cell-based, human
Procedure: A vector-based RNA interference (RNAi) system, psiH1BX3.0, had previously established to direct the synthesis of siRNAs in mammalian cells (Suzuki et al., 2003, 2005; Kato et al, 2005; Furukawa et al, 2005). 10 micro-g of siRNA-expression vector were transfected into NSCLC cell lines LC319 and A549 both of which over-expressed TTK endogenously, using 30 micro-1 of Lipofectamine 2000 (Invitrogen). The transfected cells were cultured for five days in the presence of appropriate concentrations of geneticin (G418), after which cell numbers and viability were measured by Giemsa staining and triplicate MTT assays. The target sequences of the synthetic oligonucleotides for RNAi were as follows: control 1 (Luciferase: Photinus pyralis luciferase gene), 5′-CGTACGCGGAATACTTCGA-3′ (SEQ ID NO: 9); control 2 (Scramble: chloroplast Euglena gracilis gene coding for 5S and 16S rRNAs),

A549 cells [2] = test: Microscopic observation of cell morphology (phase contrast images); type: cell-based, human; settings: non-treated cells as control
Procedure: (§1) The oligo-siRNAs (Dharmacon, Inc., Lafayette, Colo.) ([…]) were transfected into appropriate lung-cancer cell lines using 30 micro-1 of Lipofectamine 2000 (Invitrogen, Carlsbad, Calif.) following the manufacturer's protocol. The ribonucleotide sequences corresponding to following sequences were used as the oligo-siRNA.
The endogenous association between TTK and EGFR in lung cancer cells was also investigated by immunoprecipitaion experiment using extracts from A549 cells, and the interaction between these two proteins regardless the EGF-stimulation was detected (FIG. 4b). To further examine the relevance of TTK to EGFR signaling, TTK or EGFR function in A549 cells were suppressed and cell morphology was microscopically observed.

HEK293 cells [3] = test: MTT assay of TTK- or mock-stable transfectants of HEK293 transfected with RNAi-EGFR; type: cell-based
Procedure: as §1
TTK-expressing stable transfectants were established according to a standard protocol. Using FuGENE 6 Transfection Reagent (Roche Diagnostics), we transfected HEK293 and NIH3T3 cells with plasmids expressing TTK (pCAGGS-n3FH-TTK) or mock plasmids (pCAGGS-n3FH). Transfected cells were cultured in DMEM containing 10% FCS and G418, then individual colonies were trypsinized and screened for stable transfectants by a limiting-dilution assay. Expression of TTK was determined in each clone by RT-PCR, western blotting, and immunostaining. HEK293 or NIH3T3 transfectants that stably expressed TTK were seeded onto 6-well plates (5×10^4 cells/well), and maintained in medium containing 10% FCS and 0.4 mg/ml G418 for 7 days. At each time point, cell proliferation was evaluated by the MTT assay using Cell Counting Kits (WAKO). All experiments were done in triplicate.

HEK293 cells [4] = test: Matrigel invasion assay of TTK- or mock-stable transfectants of HEK293 transfected with RNAi-EGFR; type: cell-based
A549 cells [5] = test: MTT assay of A549 cells treated with cell-permeable 11R-EGFR peptides; type: cell-based, human; settings: A549 cells, 2.5, 5 and 7.5 micro-mol/L, 5 days
Procedure: 17˜31 amino acid peptide sequences corresponding to a part of EGFR protein that contained possible TTK-interacting region were covalently linked at its NH2 terminus to a membrane transducing 11 poly-arginine sequence (Hayama, S, et al. Cancer Res. 66, 10339-48 (2006), Futaki S, et al. J Biol. Chem. 276, 5836-5840 (2001)). Three cell-permeable peptides were synthesized:
Peptides were purified by preparative reverse-phase high-pressure liquid chromatography. A549 cells were incubated with the 11R peptides at the concentration of 2.5, 5, and 7.5 micro-mol/L for 5 days. The medium was exchanged at every 48 hours at the appropriate concentrations of each peptide and the viability of cells was evaluated by MTT assay at 5 days after the treatment.

[6] = tested on: catalytically-active recombinant GST-tagged human EGFR (active-rhEGFR); test: In vitro kinase assay, autophosphorylation of active-rhEGFR (western blot with anti-phospho-tyrosine antibodies); type: biochemical; settings: in the presence of ATP, no recombinant TTK
TTK [7] = test: In vitro kinase assay, phosphorylation of active-rhEGFR by recombinant TTK; type: biochemical, human; settings: active-rhEGFR pre-treated with inhibitor, recombinant TTK present
Source text: The full-length cDNA of TTK was subcloned into pFastBac HT vector. The recombinant shuttle vector was transformed into the baculovirus genome (bacmid DNA) in DH10Bac competent cells (Invitrogen) by using Tn7 site-specific transposition according to the minufacture's instructions for the Bac-to-Bac expression system (Invitrogen). The recombinant bacmid DNA was isolated, purified, transfected into Sf9 cells (Invitrogen) (recombinant baculovirus), and used for next infection. Log-phase Sf-9 cells were infected with recombinant baculovirus at a multiplicity of infection (MOI) of 1, and then infected Sf-9 cells were grown in suspension at 27° C. for 72 hours. Extracts of Sf-9 cells were collected and the His fusion proteins were purified using HiTrap HP column (GE Healthcare Bio-sciences) using standard protocols. […] TTK-KD was cloned into pGEX6T vector (GE Healthcare Bio-sciences). GST fusion protein was expressed in E. coli stain BL21 and purified by Glutathione Sepharose 4B (GE Healthcare Bio-sciences) using standard protocols. […]
The EGFR tyrosine phosphorylation sites were further evaluated by TTK using GST-tagged proteins containing various cytoplasmic region of EGFR as substrates (EGFR-DEL1, −DEL2, and −DEL3; FIG. 4e). […]

## 5′-ACAGTGTTCCGCTAAGTGA-3′ [si-TTK-1]
TTK [1]
  amount of TTK transcript: significantly decreased
LC319 and A549 cells; versus two control siRNAs
  cell viability (MTT assay): reduced significantly
  colony numbers (colony-formation assay): reduced significantly

## GTAACAAGCTCACGCAGTTTT (listed as DNA, chemistry not given here) [RNAi-EGFR (oligo)]
A549 cells [2]
  cell morphology: became much larger with multiple nuclei
HEK293 cells [3]; HEK293 transfectants stably expressing TTK, P=0.0032
  TTK-induced cell proliferation: significantly reduced
HEK293 cells [3]; control cells transfected with mock vector, P=0.2439
  proliferation of HEK293 control cells: scarcely reduced
HEK293 cells [4]; TTK-transfected HEK293 cells, P<0.0001
  TTK-induced cell invasion through Matrigel: reduced to near the basal level
HEK293 cells [4]; mock-transfected HEK293 cells
  Invasion of the control cells through Matrigel: slightly reduced

## 5′-ATCACGGACCAGTACATCT-3′ [si-TTK-2]
TTK [1]
  amount of TTK transcript: weaker reduction
LC319 and A549 cells
  growth-suppressive effect: modest growth-suppressive effect

## RRRRRRRRRRR-GGG-EFMAELLRYFRPQSKRDII (RRRRRRRRRRRGGGEFMAELLRYFRPQSKRDII) [scramble peptides, Scramble peptides derived from 11R-EGFR937-955, synthesized as a control, reference compound]
A549 cells [5]
  cell viability (MTT assay): no growth-suppressive effect

## RRRRRRRRRRR-GGG-DVYMIMVKCWMIDADSRPK (An artificially synthesised dominant negative peptide) [11R-EGFR918-936]
A549 cells [5]
  cell viability (MTT assay): significant decreases

## RRRRRRRRRRR-GGG-ISSILEKGERLPQPPICTI (An artificially synthesised dominant negative peptide) [11R-EGFR899-917]
A549 cells [5]
  cell viability (MTT assay): significant decreases

## RRRRRRRRRRR-GGG-FRELIIEFSKMARDPQRYL (An artificially synthesised dominant negative peptide) [11R-EGFR937-955]
A549 cells [5]
  cell viability (MTT assay): most effective; also recorded: significant decreases

## COc1cc2ncnc(Nc3cccc(Cl)c3)c2cc1OC [AG1478, tryphostin 4-(3-chloroanilino)-6,7-dimethoxyquinazoline]
A549 cells [2]
  cell morphology: became much larger with multiple nuclei
[6]
  autophosphorylation of active-rhEGFR on tyrosine: inhibited
[6]; listed as AG1378
  autophosphorylation of active-rhEGFR on tyrosine: not detected
TTK [7]
  phosphorylation of active-rhEGFR by TTK: not inhibited
TTK [7]; listed as AG1378
  phosphorylation of active-rhEGFR by TTK: detected in the presence of recombinant TTK

From patent US20100009920A1, “TTK AS TUMOR MARKER AND THERAPEUTIC TARGET FOR LUNG CANCER” (priority 2006, published 2010)
